Legend:
[1] = tested on: Turkey liver cytosolic GSTs; test: Turkey liver cytosolic GST activity toward substrates; type: biochemical; details: turkey liver cytosol
BHA-induced mouse liver = type: in vitro ADME

Compound	activity of turkey liver cytosolic GSTs toward the substrate [1]	AFB1 detoxification, specific enzyme activity (BHA-induced mouse liver) [nmol/min per mg protein]
O=[N+]([O-])c1ccc(Cl)c([N+](=O)[O-])c1 [CDNB, chlorodinitrobenezene]	active	–
O=[N+]([O-])c1ccc(Cl)c(Cl)c1 [DCNB, dichlornitrobenzene]	active	–
aflatoxin B1 [AFB1]	–	0.426 ± 0.04
exo-AFB1-8,9-epoxide [AFBO]	not toward	–

Source: patent publication US20130306000A1, “Aflaxtoxin Resistant Poultry” (priority 2012, published 2013)
